ChEMBL document CHEMBL1131425 (J Med Chem, 1998)

Assays:
[1] = biological target: T1, 5-hydroxytryptamine receptor 1A (Rattus norvegicus, UniProt P19327); experiment: Binding affinity against rat 5-hydroxytryptamine 1A receptor in CHO cells.; format: cell-based
T1 sequence (P19327 whole entry): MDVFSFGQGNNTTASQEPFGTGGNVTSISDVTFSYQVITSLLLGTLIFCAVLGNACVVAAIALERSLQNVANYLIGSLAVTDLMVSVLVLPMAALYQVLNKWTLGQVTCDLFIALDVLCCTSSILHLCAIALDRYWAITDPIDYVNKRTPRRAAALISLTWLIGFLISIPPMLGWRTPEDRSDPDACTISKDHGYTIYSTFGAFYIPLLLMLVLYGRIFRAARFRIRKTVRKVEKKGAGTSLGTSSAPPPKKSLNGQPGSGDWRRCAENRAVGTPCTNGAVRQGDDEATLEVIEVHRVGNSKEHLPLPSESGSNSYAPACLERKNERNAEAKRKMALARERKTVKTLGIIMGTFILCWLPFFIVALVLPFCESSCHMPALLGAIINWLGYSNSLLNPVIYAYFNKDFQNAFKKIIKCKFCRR

[2] = biological target: 5-hydroxytryptamine receptor 2A (Rattus norvegicus, UniProt P14842); experiment: Binding affinity against rat 5-hydroxytryptamine 2A receptor in NIH3T3 cells.; format: cell-based
5-hydroxytryptamine receptor 2A, sequence (P14842 whole entry): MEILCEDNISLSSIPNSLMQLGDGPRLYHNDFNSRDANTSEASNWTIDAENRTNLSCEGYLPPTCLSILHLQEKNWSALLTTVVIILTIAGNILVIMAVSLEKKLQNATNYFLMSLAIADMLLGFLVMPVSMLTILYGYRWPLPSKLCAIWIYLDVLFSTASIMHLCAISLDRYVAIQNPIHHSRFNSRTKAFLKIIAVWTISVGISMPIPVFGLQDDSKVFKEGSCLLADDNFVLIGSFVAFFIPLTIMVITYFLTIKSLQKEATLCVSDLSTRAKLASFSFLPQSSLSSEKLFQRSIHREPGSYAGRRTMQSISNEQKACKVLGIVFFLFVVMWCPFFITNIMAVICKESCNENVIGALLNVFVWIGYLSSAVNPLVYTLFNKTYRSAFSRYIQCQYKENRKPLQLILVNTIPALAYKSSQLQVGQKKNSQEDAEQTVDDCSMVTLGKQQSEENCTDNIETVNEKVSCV

[3] = biological target: T2, 5-hydroxytryptamine receptor 2C (Rattus norvegicus, UniProt P08909); experiment: Binding affinity against rat 5-hydroxytryptamine 2C receptor in A-9 cells.; format: cell-based
T2 sequence (P08909 whole entry): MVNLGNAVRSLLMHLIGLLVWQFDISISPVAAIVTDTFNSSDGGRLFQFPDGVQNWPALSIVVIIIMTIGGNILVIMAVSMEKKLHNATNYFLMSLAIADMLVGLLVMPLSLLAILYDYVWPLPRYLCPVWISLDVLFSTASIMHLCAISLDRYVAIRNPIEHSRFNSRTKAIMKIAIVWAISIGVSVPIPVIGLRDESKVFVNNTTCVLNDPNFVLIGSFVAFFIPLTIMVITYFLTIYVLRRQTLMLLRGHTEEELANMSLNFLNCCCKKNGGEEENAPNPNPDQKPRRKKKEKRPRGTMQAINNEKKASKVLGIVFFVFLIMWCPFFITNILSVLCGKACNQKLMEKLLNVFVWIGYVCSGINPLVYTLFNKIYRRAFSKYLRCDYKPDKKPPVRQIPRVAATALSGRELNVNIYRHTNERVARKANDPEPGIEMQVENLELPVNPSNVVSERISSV

D(2) dopamine receptor = D(2) dopamine receptor (Rattus norvegicus, UniProt P61169); experiment: Binding affinity against rat Dopamine receptor D2.
D(2) dopamine receptor, sequence (P61169 whole entry): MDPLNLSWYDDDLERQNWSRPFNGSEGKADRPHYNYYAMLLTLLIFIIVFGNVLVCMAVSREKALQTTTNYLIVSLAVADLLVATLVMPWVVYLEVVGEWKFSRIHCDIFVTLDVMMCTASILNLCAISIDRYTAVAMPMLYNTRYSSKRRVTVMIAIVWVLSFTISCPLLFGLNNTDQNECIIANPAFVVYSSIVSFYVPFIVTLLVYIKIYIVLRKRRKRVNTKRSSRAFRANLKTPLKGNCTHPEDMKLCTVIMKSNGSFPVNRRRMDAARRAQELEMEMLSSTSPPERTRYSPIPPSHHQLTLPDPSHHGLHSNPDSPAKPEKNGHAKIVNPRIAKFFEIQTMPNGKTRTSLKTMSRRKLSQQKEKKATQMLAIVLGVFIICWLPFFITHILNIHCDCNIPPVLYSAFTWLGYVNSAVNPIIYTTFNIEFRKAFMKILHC

| SMILES | Ki [1] [nM] | Ki [2] [nM] | Ki [3] [nM] | Ki (D(2) dopamine receptor) [nM] |
| --- | --- | --- | --- | --- |
| CNC1(C(N)=O)CCN(CCCC(=O)c2ccc(F)cc2)CC1 | > 10000 | 130 | 4480 |  |
| CCN1CNC(=O)C12CCN(CCCC(=O)c1ccc(F)cc1)CC2 | 7960 | 170 | > 10000 | 170 |
| NC(=O)C1(NC2CCCCC2)CCN(CCCC(=O)c2ccc(F)cc2)CC1 | 1610 | 6 | 270 | 43 |
| CCCCN1CN(C)C2(CCN(CCCC(=O)c3ccc(F)cc3)CC2)C1=O | > 10000 | 19 | > 10000 | 13 |
| CCN1CN(C)C2(CCN(CCCC(=O)c3ccc(F)cc3)CC2)C1=O | > 10000 | 21 | > 10000 |  |
| CC(C)NC1(C(N)=O)CCN(CCCC(=O)c2ccc(F)cc2)CC1 | > 10000 | 14 | 426 | 400 |
| CC(C)N1CN(C)C2(CCN(CCCC(=O)c3ccc(F)cc3)CC2)C1=O | 6300 | 7 | > 10000 | 46 |
| O=C(CCCN1CCC2(CC1)NCNC2=O)c1ccc(F)cc1 | > 10000 | 5600 | > 10000 |  |
| CN1CNC(=O)C12CCN(CCCOc1ccc(F)cc1)CC2 |  | 35 | > 10000 | 734 |
| CN1CNC(=O)C12CCN(CCCC(=O)c1ccc(F)cc1)CC2 | > 10000 | 23 | > 10000 | 220 |
| CC(C)N1CNC(=O)C12CCN(CCCC(=O)c1ccc(F)cc1)CC2 | 2340 | 38 | > 10000 | 400 |
| NC(=O)C1(N)CCN(CCCC(=O)c2ccc(F)cc2)CC1 |  | 420 | > 10000 |  |
| CN1CN(C)C2(CCN(CCCC(=O)c3ccc(F)cc3)CC2)C1=O | > 10000 | 45 | > 10000 | 300 |
| CCCN1CN(C)C2(CCN(CCCOc3ccc(F)cc3)CC2)C1=O | > 10000 | 19 | > 10000 | 230 |
| CCCN1CN(C)C2(CCN(CCCC(=O)c3ccc(F)cc3)CC2)C1=O | > 10000 | 20 | > 10000 | 130 |
| O=C(CCCN1CCC2(CC1)C(=O)NCN2c1ccccc1)c1ccc(F)cc1 [SPIPERONE] | 58 |  |  |  |
| O=C(CCCN1CCC2(CC1)C(=O)NCN2C1CCCCC1)c1ccc(F)cc1 |  | 0.7 | 677 | 0.7 |
| CN1CN(Cc2ccccc2)C(=O)C12CCN(CCCC(=O)c1ccc(F)cc1)CC2 | 265 | 22 | 1400 |  |
